# Where two headings read alike, the source gives them in different places. Where a SMILES comes first, the peptide text is derived from it.
# Legend:
# [1] = tested on: Tryptase, from human lung; assay: Enzymatic assay, tryptase; details: at 100 μM
# [2] = molecular target: Chymotrypsin, from human pancreas (Homo sapiens, UniProt P17538); assay: Enzymatic assay, chymotrypsin
# [3] = molecular target: T1, Elastase from human neutrophils (Homo sapiens, UniProt P08246); assay: Enzymatic assay, elastase
# T1 sequence (P08246 30-267): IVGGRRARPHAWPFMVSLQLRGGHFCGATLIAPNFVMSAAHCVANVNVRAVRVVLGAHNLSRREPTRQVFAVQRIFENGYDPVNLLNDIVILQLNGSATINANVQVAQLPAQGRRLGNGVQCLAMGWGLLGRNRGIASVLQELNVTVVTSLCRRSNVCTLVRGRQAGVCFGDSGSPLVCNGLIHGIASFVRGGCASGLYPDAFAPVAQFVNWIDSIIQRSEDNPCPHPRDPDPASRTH
# HELA cells (Acc57) = assay: Cytotoxicity assay (MTT reduction), HELA cells; assay type: cell-based; details: Hela cells
# Summary of the method: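 HeLa cells were grown for 24 h, then exposed to peptides at 12.5, 25 and 50 μM in triplicate for 48 h at 37 °C. MTT reduction was read at 595 nm and growth % calculated relative to time-zero wells. LC50 interpolated by linear trend at −50% growth, GI50 at 50%.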
# [4] = molecular target: T2, CathepsinG, from human neutrophils (Homo sapiens, UniProt P08311); assay: Enzymatic assay, cathepsin G
# T2 sequence (P08311 21-244): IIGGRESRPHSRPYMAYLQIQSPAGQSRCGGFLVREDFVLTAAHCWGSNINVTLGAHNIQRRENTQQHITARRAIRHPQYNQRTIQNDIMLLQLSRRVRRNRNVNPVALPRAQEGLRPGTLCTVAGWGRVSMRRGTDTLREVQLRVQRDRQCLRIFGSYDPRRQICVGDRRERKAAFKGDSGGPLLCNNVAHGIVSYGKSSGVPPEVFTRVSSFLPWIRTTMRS
# [5] = molecular target: Trypsin, from human pancreas (Homo sapiens, UniProt P07477); assay: Enzymatic assay, trypsin; details: at 100 μM
# [6] = molecular target: Coagulation Factor Xa, from uman plasma (Homo sapiens, UniProt P00742); assay: Enzymatic assay, coagulation factor Xa
# [7] = tested on: human red blood cells (hRBC); assay: Hemolysis
# Experimental: The peptides were tested for their hemolytic activity against human red blood cells (hRBC). Fresh hRBC were washed three times with phosphate buffered saline (PBS) by centrifugation for 10 min at 2000×g. Peptides at a concentration of 100 μM were incubated with 20% v/v hRBC for 1 hour at 37° C. The final erythrocyte concentration was approximately 0.9×10^9 cells per ml. A value of 0% and, respectively, 100% cell lysis was determined by incubation of the hRBC in the presence of PBS alone and, respectively, 0.1% Triton X-100 in H2O. […] The 100% lysis value (OD540H20) gave an OD540 of approximately 1.3-1.8. Percent hemolysis was calculated as follows: (OD540peptide/OD540H20)×100%.
# [8] = assay type: in vitro ADME; details: 10 µM
# Experimental: 405 μl of plasma/albumin solution were placed in a polypropylene (PP) tube and spiked with 45 μl of compound from a […] solution B, derived from 135 μl of PBS and 15 μl of 1 mM peptide in PBS, pH 7.4. 150 μl aliquots were transferred into individual wells of the 10 kDa filter plate (Millipore MAPPB 1010 Biomax membrane). For “0 minutes controls”: 270 μl of PBS were placed in a PP tube and 30 μl of stock solution B was added and vortexed. 150 μl of control solution were placed into one well of the filter plate and served as “filtered control”.
# Further 150 μl of control solution were placed directly into a receiver well (reserved for filtrate) and served as “not-filtered control”. The entire plate including evaporation lid was incubated for 60 min at 37° C. Plasma samples (rat plasma: Harlan Sera lab UK, human plasma: Blutspendezentrum Zürich) were centrifuged at least for 2 h at 4300 rpm (3500 g) and 15° C. in order to yield 100 filtrate. For “serum albumin”-samples (freshly prepared human albumin: Sigma A-4327, rat albumin: Sigma A-6272, all at 40 mg/ml concentration in PBS) approximately 1 hour of centrifugation was sufficient. The filtrates in the receiver PP plate were analysed by LC/MS as follower follows: Column: Jupiter C18 (Phenomenex), mobile phases: (A) 0.1% formic acid in water and (B) acetonitrile, gradient: 5%-100% (B) in 2 minutes, electrospray ionization, MRM detection (triple quadrupole). The peak areas were determined and triplicate values were averaged. The binding was expressed in percent of the (filtered and not-filtered time point 0 min) control 1 and 2 by: 100−(100×T60/T0). The average from these values was then calculated.
# Chymase, from human skin = molecular target: T3, Chymase, from human skin (Homo sapiens, UniProt P23946); assay: Enzymatic assay, chymase
# T3 sequence (P23946 22-247): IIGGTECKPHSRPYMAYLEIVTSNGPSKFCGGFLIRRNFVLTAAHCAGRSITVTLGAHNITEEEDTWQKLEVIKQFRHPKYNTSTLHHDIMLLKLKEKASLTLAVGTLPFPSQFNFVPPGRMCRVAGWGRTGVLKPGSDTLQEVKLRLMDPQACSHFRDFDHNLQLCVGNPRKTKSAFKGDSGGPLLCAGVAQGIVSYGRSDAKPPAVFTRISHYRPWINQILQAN
# [9] = molecular target: Thrombin, from Human Plasma (Homo sapiens, UniProt P00734); assay: Enzymatic assay, thrombin
# [10] = molecular target: Urokinase from human urine (Homo sapiens, UniProt P00749); assay: Enzymatic assay, urokinase
# Sequence of Coagulation Factor Xa, from uman plasma (P00742 235-488 limits assumed): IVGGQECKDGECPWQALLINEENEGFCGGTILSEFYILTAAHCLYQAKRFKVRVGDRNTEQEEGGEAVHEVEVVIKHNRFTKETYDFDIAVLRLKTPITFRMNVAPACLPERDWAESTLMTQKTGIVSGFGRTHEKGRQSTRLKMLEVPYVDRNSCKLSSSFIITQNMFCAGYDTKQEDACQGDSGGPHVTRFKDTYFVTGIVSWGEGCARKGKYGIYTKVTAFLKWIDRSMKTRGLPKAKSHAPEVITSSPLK
# Sequence of Coagulation Factor Xa, from uman plasma (P00742 41-179 limits assumed): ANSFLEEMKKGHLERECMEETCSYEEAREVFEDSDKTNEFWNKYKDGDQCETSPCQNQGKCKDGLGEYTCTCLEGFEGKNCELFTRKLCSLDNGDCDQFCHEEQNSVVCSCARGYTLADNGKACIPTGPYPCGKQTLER
# Sequence of Chymotrypsin, from human pancreas (P17538 19-263): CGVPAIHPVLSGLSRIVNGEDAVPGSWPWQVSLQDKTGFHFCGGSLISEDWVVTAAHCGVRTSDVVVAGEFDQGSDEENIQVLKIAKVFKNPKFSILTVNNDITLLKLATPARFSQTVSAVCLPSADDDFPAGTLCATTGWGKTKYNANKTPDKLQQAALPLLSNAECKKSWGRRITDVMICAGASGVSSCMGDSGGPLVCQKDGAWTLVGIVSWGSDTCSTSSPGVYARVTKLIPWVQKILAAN
Structure (SMILES),Tryptase at 100 μM % [1] [%],Chymotrypsin at 100 μM % [2] [%],IC50 ([3]; Elastase IC50) [µM],Cytotoxicity LC50/GI50 Hela cells (HELA cells (Acc57)) [µM],IC50 ([4]; Cathepsin G IC50) [µM],Trypsin at 100 μM % [5] [%],FXa at 100 μM % [6] [%],Hemolysis at 100 μM % [7] [%],Stability human Plasma t1/2 [8] [h],Stability rat Plasma t1/2 [8] [h],"Chymase at 100 μM % (Chymase, from human skin) [%]",Thrombin at 100 μM % [9] [%],Urokinase at 100 μM % [10] [%],IC50 ([3]; read-out: Elastase IC50) [µM],IC50 ([4]; read-out: Cathepsin G IC50) [µM],IC50 [2] [µM],Tryptase At 100 μM % [1] [%],Cathepsin G at 100 μM % ([4]; at 100 μM) [at 100%]
"CCCC[C@@H]1NC(=O)[C@H]([C@@H](C)O)NC(=O)[C@@H]2CSSC[C@H](NC(=O)[C@H]([C@@H](C)CC)NC(=O)[C@@H]3CCCN3C(=O)[C@@H]3CCCN3C(=O)[C@H](CC(=O)O)NC(=O)[C@H](CO)NC1=O)C(=O)N[C@@H](Cc1ccc(O)cc1)C(=O)N1CCC[C@@H]1C(=O)N1CCC[C@H]1C(=O)N[C@@H](Cc1ccccc1)C(=O)N2 [Ex. 23] (HELM PEPTIDE1{F.C.T.[Nle].S.D.P.P.I.C.Y.[dP].P}$PEPTIDE1,PEPTIDE1,2:R3-10:R3|PEPTIDE1,PEPTIDE1,1:R1-13:R2$$$V2.0)",29,4,> 100,51,0.038,90,11,0,5,5,60,0,9,,,,,
"CCCC[C@@H]1NC(=O)[C@H]([C@@H](C)O)NC(=O)[C@@H]2CSSC[C@H](NC(=O)[C@H]([C@@H](C)CC)NC(=O)[C@@H]3CCCN3C(=O)[C@@H]3CCCN3C(=O)[C@H](CC(=O)O)NC(=O)[C@H](CO)NC1=O)C(=O)N[C@@H](Cc1ccc(O)cc1)C(=O)N1CCC[C@@H]1C(=O)N1CCC[C@H]1C(=O)N[C@@H](Cc1ccccc1)C(=O)N2 [Ex. 60] (HELM PEPTIDE1{F.C.T.[Nle].S.D.P.P.I.C.Y.[dP].P}$PEPTIDE1,PEPTIDE1,2:R3-10:R3|PEPTIDE1,PEPTIDE1,1:R1-13:R2$$$V2.0)",29.4,4,,51,,90,11,0,,,60,0,9,> 100,0.038,,,
"CCCC[C@@H]1NC(=O)[C@@H]2CCCN2C(=O)[C@@H]2CCCN2C(=O)[C@H](CC(=O)O)NC(=O)[C@H](CO)NC(=O)[C@H](CCCCN)NC(=O)[C@H]([C@@H](C)O)NC(=O)[C@@H]2CSSC[C@H](NC1=O)C(=O)N[C@@H](Cc1ccc(O)cc1)C(=O)N1CCC[C@@H]1C(=O)N1CCC[C@H]1C(=O)N[C@@H](C1CCCCC1)C(=O)N2 [Ex. 63] (HELM PEPTIDE1{[O=C([C@@H](N[*:1])C1CCCCC1)[*:2]].C.T.K.S.D.P.P.[Nle].C.Y.[dP].P}$PEPTIDE1,PEPTIDE1,2:R3-10:R3|PEPTIDE1,PEPTIDE1,1:R1-13:R2$$$V2.0)",50,11,> 100,87,0.041,96,0,0,,,7,1,0,,,,,
"CC[C@H](C)[C@@H]1NC(=O)[C@@H]2CCCN2C(=O)[C@@H]2CCCN2C(=O)[C@H](CC(=O)O)NC(=O)[C@H](CO)NC(=O)[C@H](CCCCN)NC(=O)[C@H]([C@@H](C)O)NC(=O)[C@@H]2CSSC[C@H](NC1=O)C(=O)N[C@@H](CO)C(=O)N1CCC[C@@H]1C(=O)N[C@@H](CCC(=O)O)C(=O)N[C@@H](Cc1ccccc1)C(=O)N2 [Ex. 64] (HELM PEPTIDE1{F.C.T.K.S.D.P.P.I.C.S.[dP].E}$PEPTIDE1,PEPTIDE1,2:R3-10:R3|PEPTIDE1,PEPTIDE1,1:R1-13:R2$$$V2.0)",0,0,> 100,59,0.045,87,0,0,,,0,2.3,3,,,,,
"CCCC[C@@H]1NC(=O)[C@H](CC(=O)O)NC(=O)[C@H]2CCCN2C(=O)[C@H](Cc2ccc(O)cc2)NC(=O)[C@@H]2CSSC[C@H](NC1=O)C(=O)N[C@@H]([C@@H](C)O)C(=O)N[C@@H](C)C(=O)N[C@@H](CO)C(=O)N[C@@H]([C@@H](C)CC)C(=O)N1CCC[C@H]1C(=O)N1CCC[C@H]1C(=O)N[C@@H](CCC(N)=O)C(=O)N2 [Ex. 121] (HELM PEPTIDE1{[Nle].C.T.A.S.I.P.P.Q.C.Y.[dP].D}$PEPTIDE1,PEPTIDE1,2:R3-10:R3|PEPTIDE1,PEPTIDE1,1:R1-13:R2$$$V2.0)",4.6,,0.018,49,11.2,12.8,5.6,,5,5,1.2,0,5.7,,,27.5,,
"C[C@@H]1NC(=O)[C@H]([C@@H](C)O)NC(=O)[C@@H]2CSSC[C@H](NC(=O)[C@H](CCC(N)=O)NC(=O)[C@@H]3CCCN3C(=O)[C@@H]3CCCN3C(=O)[C@H](CC3CCCCC3)NC(=O)[C@H](CO)NC1=O)C(=O)N[C@@H](CCC(N)=O)C(=O)N1CCC[C@@H]1C(=O)N1CCC[C@H]1C(=O)N[C@@H](CCc1ccccc1)C(=O)N2 [Ex. 158] (HELM PEPTIDE1{[O=C([C@H](CCc1ccccc1)N[*:1])[*:2]].C.T.A.S.[Cha].P.P.Q.C.Q.[dP].P}$PEPTIDE1,PEPTIDE1,2:R3-10:R3|PEPTIDE1,PEPTIDE1,1:R1-13:R2$$$V2.0)",,93,0.0071,,,8,1,,5,5,0,2,10,,,,13,55

# Source: patent publication US8658604B2, “Template-fixed beta-hairpin peptidomimetics with protease inhibitory activity” (Polyphor Ltd, priority 2005, dated 2014)
